# Reference: publication PMC2717725 (Journal of medicinal chemistry, 2008)
# Structures can show the parent of a compound that is named as a salt.
# Experiments:
# CDK1/cyclin B = CDK1/cyclin B kinase assay; assay type: biochemical, starfish (Marthasterias glacialis); conditions: read-out: CDK1 IC50, 15 μM ATP
# Rat-1 fibroblasts [1] = conditions: lithium 10-20 mM, mammalian cells; cited from earlier work
# GSK-3α/β = GSK-3α/β kinase assay; assay type: biochemical, porcine; conditions: for IC50: read-out: GSK3 IC50, GSK-3α/β, 15 μM ATP, from dose-response curves
# [2] = Equilibrium water solubility; assay type: physicochemical
# [3] = tested on: GSK-3 -phosphorylated β-catenin; assay: β-catenin phosphorylation at GSK-3 sites in SH-SY5Y cells; assay type: cell-based, human; conditions: 6 h, 10 μM or dose-response, 2 μM MG132
# Rat-1 fibroblasts [4] = assay: Luminescence assay of circadian rhythmicity, PPer2::Fluc reporter; assay type: cell-based; conditions: 10 μM, Rat-1 PPer2::Fluc, monitored 4 days
Compound,IC50 (CDK1/cyclin B),inhibition of β-catenin phosphorylation at GSK-3 specific sites [3],also measured
"O=C1Nc2cc(Br)ccc2/C1=C1/Nc2ccccc2/C1=N\OCCN1CCCC1 [Compound 18, (2′Z-3′E)-6-Bromoindirubin-3′-[O-(2-pyrrolidin-1-ylethyl)oxime] Hydrochloride]",450 nM,,
"O=C1Nc2cc(Br)ccc2/C1=C1/Nc2ccccc2/C1=N\OCCN1CCN(CCOCCO)CC1 [Compound 26, (2′Z-3′E)-6-Bromoindirubin-3′-[O-(2-{4-[2-(2-hydroxyethoxy)-ethyl]piperazin-1-yl}ethyl)oxime] Dihydrochloride]",500 nM,,
[Li] [Lithium],,,effect on circadian period (Rat-1 fibroblasts [1]): lengthens the period
"CN(CCON=C1C(=C2C(=O)Nc3cc(Br)ccc32)Nc2ccccc21)CC(O)CO.Cl (stereo not drawn) [Compound 21, (2Z-3′E)-6-Bromoindirubin-3′-(O-{2-[N-methyl, N-(2,3-dihydroxypropyl)amino]ethyl}oxime] Hydrochloride]",150 nM,,IC50 (GSK-3α/β): 23 nM; solubility ([2]; double distilled water): 1450 µg/mL
"CN1CCN(CCO/N=C2/C(=C3/C(=O)Nc4cc(Br)ccc43)Nc3ccccc32)CC1 [Compound 12, (2′Z-3′E)-6-Bromoindirubin-3′-{O-[2-(4-methyl-piperazin-1-yl)ethyl]oxime}]",,most efficient,"selectivity for GSK-3 versus 6BIO (GSK-3α/β; GSK-3 over CDKs, compared to 6BIO): improved selectivity of one order of magnitude"
"O=C1Nc2cc(Br)ccc2/C1=C1/Nc2ccccc2/C1=N\OCCN1CCN(CCO)CC1 [Compound 13, (2′Z-3′E)-6-Bromoindirubin-3′-(O-{2-[4-(2-hydroxyethyl)piperazin-1-yl]ethyl}oxime)]",,most efficient,
"O=C1Nc2cc(Br)ccc2/C1=C1/Nc2ccccc2/C1=N\OCCBr [Compound 1, (2′Z-3′E)-6-Bromoindirubin-3′-[O-(2-bromoethyl)-oxime]]",> 10000 nM,,
"CCN(CC)C(=O)O/N=C1/C(=C2/C(=O)Nc3cc(Br)ccc32)Nc2ccccc21 [Compound 4, (2′Z-3′E)-6-Bromoindirubin-3′-[O-(N,N-diethylcarbamyl)-oxime]]",> 10000 nM,,
"Cl.Cl.O=C1Nc2cc(Br)ccc2/C1=C1/Nc2ccccc2/C1=N\OCCN1CCNCC1 [Compound 22, (2′Z-3′E)-6-Bromoindirubin-3′-[O-(2-piperazine-1-ylethyl)oxime] Dihydrochloride]",,most efficient,
Cl.O=C1Nc2cc(Br)ccc2/C1=C1/Nc2ccccc2/C1=N\OCCN(CCO)CCO [Compound 20],,most efficient,
"O=C1Nc2cc(Br)ccc2/C1=C1/Nc2ccccc2/C1=N\OCCN1CCN(CCOCCO)CC1 [Compound 15, (2′Z-3′E)-6-Bromoindirubin-3′-[O-(2-{4-[2-(2-hydroxyethoxy)-ethyl]piperazin-1-yl}ethyl)oxime]]",900 nM,,effect on circadian period length (Rat-1 fibroblasts [4]): gradual shortening of the period length
"O=C1Nc2cc(Br)ccc2/C1=C1/Nc2ccccc2/C1=N\OCC(O)CO (stereo not drawn) [Compound 3, (2′Z-3′E)-6-Bromoindirubin-3′-[O-(2,3-dihydroxypropyl)-oxime]]",110 nM,most efficient,decrease of activity/affinity on GSK-3 compared to 6BIO (GSK-3α/β; relative to 6BIO): 6 fold; solubility change versus 6BIO (in words) ([2]; water): mediocre improvement of solubility
"CN1CCN(CCO/N=C2/C(=C3/C(=O)Nc4cc(Br)ccc43)Nc3ccccc32)CC1.Cl.Cl [Compound 23, (2′Z-3′E)-6-Bromoindirubin-3′-{O-[2-(4-methylpiperazin-1-yl)ethyl]oxime} Dihydrochloride]",,most efficient,
"CN1C(=O)C(=C2Nc3ccccc3C2=NO)c2ccc(Br)cc21 [1-methyl-6BIO, reference compound]",,ineffective,
"COCCN1CCN(CCO/N=C2/C(=C3/C(=O)Nc4cc(Br)ccc43)Nc3ccccc32)CC1 [Compound 25, (2′Z-3E)-6-Bromoindirubin-3′-(O-{2-[4-(2-methoxyethyl)piperazin-1-yl]ethyl}oxime) Dihydrochloride]",1000 nM,,
"O=C1Nc2cc(Br)ccc2/C1=C1/Nc2ccccc2/C1=N\OCCN1CCNCC1 [Compound 11, (2′Z-3′E)-6-Bromoindirubin-3′-[O-(2-piperazine-1-ylethyl)oxime]]",,most efficient,
"Cl.Cl.O=C1Nc2cc(Br)ccc2/C1=C1/Nc2ccccc2/C1=N\OCCN1CCN(CCO)CC1 [Compound 24, (2′Z-3E)-6-Bromoindirubin-3′-(O-{2-[4-(2-hydroxyethyl)piperazin-1-yl]ethyl}oxime) Dihydrochloride]",,most efficient,
"CN(C)CCO/N=C1/C(=C2/C(=O)Nc3cc(Br)ccc32)Nc2ccccc21.Cl [Compound 16, (2′Z-3′E)-6-Bromoindirubin-3′-[O-(2-dimethylaminoethyl)oxime] Hydrochloride]",,most efficient,
O=C1Nc2cc(Br)ccc2/C1=C1/Nc2ccccc2/C1=N\OCCN(CCO)CCO [Compound 9],,most efficient,
"O=C1Nc2cc(Br)ccc2/C1=C1/Nc2ccccc2/C1=N\OCCO [Compound 2, (2′Z-3′E)-6-Bromoindirubin-3′-[O-(2-hydroxyethyl)-oxime]]",> 10000 nM,,IC50 (GSK-3α/β): 3 nM
"O=C1Nc2cc(Br)ccc2/C1=C1/Nc2ccccc2/C1=N\OCCN1CCCC1 [Compound 7, (2′Z-3′E)-6-Bromoindirubin-3′-[O-(2-pyrrolidin-1-ylethyl)oxime]]",500 nM,,
"CN(C)CCO/N=C1/C(=C2/C(=O)Nc3cc(Br)ccc32)Nc2ccccc21 [Compound 5, (2′Z-3′E)-6-Bromoindirubin-3′-[O-(2-dimethylaminoethyl)-oxime]]",,most efficient,
